Results published in patent US10988474B2, “Compounds acting at multiple prostaglandin receptors giving a general anti-inflammatory response” (ALLERGAN, INC., priority 2011, dated 2021).

Columns and labels:
Format in all cases: cell-based
[1] = molecular target: T1, human prostanoid TP receptor (Homo sapiens, UniProt P21731); assay: FLIPR Ca2+ signaling PG antagonist assay, TP stable cell line; details: HEK-293 EBNA cells, human recombinant TP, no exogenous G-protein; standard agonist U-46619
T1 construct: expressed in transfected cells
T1 sequence (P21731 1-343): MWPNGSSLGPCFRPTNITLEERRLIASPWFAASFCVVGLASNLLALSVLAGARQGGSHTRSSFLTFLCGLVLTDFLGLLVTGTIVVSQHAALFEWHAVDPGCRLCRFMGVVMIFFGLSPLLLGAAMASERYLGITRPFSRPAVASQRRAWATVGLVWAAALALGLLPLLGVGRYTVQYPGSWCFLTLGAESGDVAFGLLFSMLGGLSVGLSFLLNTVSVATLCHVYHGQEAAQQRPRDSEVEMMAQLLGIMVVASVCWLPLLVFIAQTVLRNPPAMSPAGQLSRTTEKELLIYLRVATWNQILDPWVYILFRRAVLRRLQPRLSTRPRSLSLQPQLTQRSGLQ
Procedure: (§1) The above compounds were tested for PG antagonist activity as follows using human recombinant prostanoid receptor (DP1, EP1-4, FP, IP and TP) stable cell lines: In order to measure the response of Gs and Gi coupled prostanoid receptors as a Ca^2+ signal, chimeric G protein cDNAs were used. Stable cell lines over-expressing human prostanoid DP1, EP1-4, FP, IP, and TP receptors were established as follows:
(§2) Briefly, human prostanoid DP1, EP2, and EP4 receptor cDNAs were co-transfected with chimeric Gqs cDNA containing a haemagglutanin (HA) epitope; human prostanoid EP3 receptors were co-transfected with chimeric Gqi-HA; human EP1, FP, IP, and TP receptor cDNAs were expressed with no exogenous G-proteins. Gqs and Gqi chimeric cDNAs (Molecular Devices, Sunnyvale, Calif., U.S.A.), as well as cDNAs of prostanoid receptors, were cloned into a pCEP4 vector with a hygromycin B selection marker. Transfection into HEK-293 EBNA (Epstein-Barr virus nuclear antigen) cells was achieved by the FuGENE 6 transfection Reagent (Roche Applied Science, Indianapolis, Ind., USA). Stable transfectants were selected according to hygromycin resistance. Because Gqs and Gqi contained an HA epitope, G-protein expression was detected by Western blotting analysis using anti-mouse HA monoclonal antibody and horseradish peroxidase (HRP)-conjugated secondary antibody, while functional expression of prostanoid receptors was detected by FLIPR screening (Matias et al., 2004). These stable cell lines were validated using previously published antagonists at 10 μM against serial dilutions of standard agonists by FLIPR functional assays for Ca^2+ Signaling (as described below).
(§3) Ca^2+ signaling studies were performed using a FLIPR TETRA system (Molecular Devices, Sunnyvale, Calif., USA) in the 384-format. This is a high-throughput instrument for cell-based assays to monitor Ca^2+ signaling associated with GPCRs and ion channels. Cells were seeded at a density of 5×10^4 cells/well in BioCoat poly-D-lysine coated, black wall, clear bottom 384-well plates (BD Biosciences, Franklin lakes, NJ, USA) and allowed to attach overnight in an incubator at 37° C. The cells were then washed twice with HBSS-HEPES buffer (Hanks' balanced salt solution without bicarbonate and phenol red, 20 mM HEPES, pH 7.4) using an ELx405 Select CW Microplate Washer (BioTek, Winooski, Vt., USA). After 60 min of dye-loading in the dark using the Ca^2+-sensitive dye Fluo-4AM (Invitrogen, Carlsbad, Calif., USA), at a final concentration of 2×10^−6M, the plates were washed 4 times with HBSS-HEPES buffer to remove excess dye and leaving 50 μl of buffer in each well. The plates were then placed in the FLIPR TETRA instrument and allowed to equilibrate at 37° C. Compounds were added in a 25 μl volume to each well to give final concentrations of 0.1 μM, 0.3 μM, 1 μM, 3 μM, 10 μM, and 30 μM; or 0.067 μM, 0.1 μM, 0.2 μM, 0.3 μM, 0.67 μM, and 1 μM for cells over-expressing TP receptors. After 4.5 minutes, a 7-point serial dilution of the standard agonist for the corresponding receptor, in a 25 μl volume was injected at the final concentrations from 10^−11M to 10^−5M in 10-fold serial dilution increments for cells expressing human recombinant DP1, EP1, EP2, EP3, EP4, FP, and IP receptors. The dose range for the standard agonist for human recombinant TP receptors was from 10^−12M to 10^−6M. HBSS-HEPES buffer was used as the negative control for the standard agonists. Cells were excited with LED (light emitting diode) excitation at 470-495 nm and emission was measured through an emission filter at 515-575 nm. Assay plates were read for 3.5 minutes using the FLIPR^TETRA. The peak increase in fluorescence intensity was recorded for each well. On each plate, negative controls, dose response of positive controls, and co-treatments of antagonist-agonist for each dose were in triplicates. Standard agonists were as follows: DP=BW 245C, EP1-EP4=PGE2, FP=17-phenyl-PGF2α, IP=Cicaprost, and TP=U-46619. […]

[2] = molecular target: T2, human prostanoid IP receptor (Homo sapiens, UniProt P43119); assay: FLIPR Ca2+ signaling PG antagonist assay, IP stable cell line; details: HEK-293 EBNA cells, human recombinant IP, no exogenous G-protein; standard agonist Cicaprost
T2 construct: expressed in transfected cells
T2 sequence (P43119 whole entry): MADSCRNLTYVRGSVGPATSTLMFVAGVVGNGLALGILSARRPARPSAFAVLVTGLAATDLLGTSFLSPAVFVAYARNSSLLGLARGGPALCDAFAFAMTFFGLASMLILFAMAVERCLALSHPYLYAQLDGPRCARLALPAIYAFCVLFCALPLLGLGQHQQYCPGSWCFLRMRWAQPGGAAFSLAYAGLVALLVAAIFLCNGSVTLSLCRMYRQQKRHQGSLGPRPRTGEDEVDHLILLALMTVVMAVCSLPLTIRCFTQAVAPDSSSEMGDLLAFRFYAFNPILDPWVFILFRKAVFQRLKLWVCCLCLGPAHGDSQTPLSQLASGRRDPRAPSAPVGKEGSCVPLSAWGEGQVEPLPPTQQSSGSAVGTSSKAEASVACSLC
Procedure: as §1, §2, §3

[3] = molecular target: T3, human prostanoid DP1 receptor (Homo sapiens, UniProt Q13258); assay: FLIPR Ca2+ signaling PG antagonist assay, DP1 stable cell line; details: HEK-293 EBNA cells, human recombinant DP1 with chimeric Gqs; standard agonist BW 245C; read-out: DP (Kb, PG antagonist activity)
T3 construct: expressed in transfected cells
T3 sequence (Q13258 1-359): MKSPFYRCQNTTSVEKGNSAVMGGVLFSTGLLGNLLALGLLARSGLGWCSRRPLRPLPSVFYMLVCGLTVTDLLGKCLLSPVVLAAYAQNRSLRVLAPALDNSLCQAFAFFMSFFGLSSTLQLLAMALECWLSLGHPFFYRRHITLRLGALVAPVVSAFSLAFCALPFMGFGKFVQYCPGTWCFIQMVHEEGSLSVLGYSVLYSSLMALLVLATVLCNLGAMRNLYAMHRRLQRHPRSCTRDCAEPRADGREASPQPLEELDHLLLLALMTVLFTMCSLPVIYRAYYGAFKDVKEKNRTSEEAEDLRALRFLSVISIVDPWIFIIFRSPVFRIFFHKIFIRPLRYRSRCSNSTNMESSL
Procedure: as §1, §2, §3

[4] = molecular target: T4, human prostanoid FP receptor (Homo sapiens, UniProt P43088); assay: FLIPR Ca2+ signaling PG antagonist assay, FP stable cell line; details: HEK-293 EBNA cells, human recombinant FP, no exogenous G-protein; standard agonist 17-phenyl-PGF2α
T4 construct: expressed in transfected cells
T4 sequence (P43088 whole entry): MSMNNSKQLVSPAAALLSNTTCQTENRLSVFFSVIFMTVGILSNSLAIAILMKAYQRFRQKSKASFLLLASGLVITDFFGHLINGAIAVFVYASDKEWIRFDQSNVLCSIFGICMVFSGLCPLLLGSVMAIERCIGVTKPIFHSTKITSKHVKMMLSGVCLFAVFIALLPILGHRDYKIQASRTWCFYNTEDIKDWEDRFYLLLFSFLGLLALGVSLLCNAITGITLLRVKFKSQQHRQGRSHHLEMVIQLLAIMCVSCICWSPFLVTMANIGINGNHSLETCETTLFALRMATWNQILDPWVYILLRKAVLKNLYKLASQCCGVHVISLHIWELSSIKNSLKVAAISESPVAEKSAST
Procedure: as §1, §2, §3

“1-(5-Bromo-2-Isobutoxy-Benzyl)-1H-Pyrrolo[2,3-B]Pyridine-5-Carboxylic Acid [Example 30]” was tested, and the Kb [1] was 0.005 µM and the Kb [2] was 6 µM.
“1-[5-Bromo-2-(2-Ethyl-Butoxy)-Benzyl]-1H-Pyrrolo[2,3-B]Pyridine-5-Carboxylic Acid [Example 31]” was tested, and the Kb [2] was 0.52 µM.
Work on CC(C)COc1ccc(Br)cc1Cn1cc2ccc(C(=O)O)cc2n1 [Example 43, 2-(5-Bromo-2-Isobutoxy-Benzyl)-2H-Indazole-6-Carboxylic Acid] yielded a Kb [1] of 0.11 µM, a Kb [3] of 2 µM and a Kb [2] of 4.9 µM. It also gave a Kb [4] of 2.2 µM.
CCC(CC)COc1ccc(OC(F)(F)F)cc1Cn1ccc2cc(C(=O)O)cnc21 [Example 76, 1-[2-(2-Ethyl-Butoxy)-5-Trifluoromethoxy-Benzyl]-1H-Pyrrolo[2,3-B]Pyridine-5-Carboxylic Acid] showed a Kb [1] of 0.02 µM and a Kb [2] of 1.4 µM.
